Data from patent US20260263361A1, “CANNABIDIOL AQUEOUS SOLUTION COMPOSITION AND CANNABIDIOL-CONTAINING PHARMACEUTICAL PREPARATION COMPRISING SAME” (priority 2023, published 2026).

Tests used:
[1] = Long-term stability of CBD-containing film: CBD content by HPLC after storage under harsh conditions; format: physicochemical
Experimental: The long-term stability of the orally disintegrating film of Example 2, having the composition of Table 6, was evaluated.
For comparison, the long-term stability of CBD in the orally disintegrating film containing CBD-prepared according to the composition shown in Table 7 and corresponding to Korean Patent Application No. 10-2019-0097649—was evaluated as Comparative Example 2.
Immediately after film formation, the films were packaged in airtight containers and left under harsh conditions for 0, 24, and 72 hours, after which the CBD content was analyzed by high-performance liquid chromatography (HPLC).
Additionally, further experiments were conducted to increase the stability of the orally disintegrating film of the current Example 2.

[2] = Primary solubilizer mixed with an additional solubilizer, extent of CBD dissolution observed; format: physicochemical
Experimental: Due to the compatibility required between ingredients for use in the CBD aqueous solution formulation, additional solubilizerswere mixed with the selected primary components, and the extent of CBD dissolution was evaluated.

Compound	Decrease (24 hrs, %) ([1]; 24 hrs vs 0 hr) [%]	CBD content 0 hr ([1]; airtight container, 0 hr, HPLC)	CBD content 24 hr ([1]; airtight container, 24 hr, HPLC)	state of CBD in aqueous solution (FIG. 1) [2]
C=C(C)[C@@H]1CCC(C)=C[C@H]1c1c(O)cc(CCCCC)cc1O [CBD isolate powder, 2-[(1R,6R)-3-methyl-6-(1-methylethenyl)-2-cyclohexen-1-yl]-5-pentyl-1,3-benzenediol]	0.28	103.58	103.86	–
OCC(O)CO [Glycerin]	–	–	–	not dissolved and appeared as precipitate or crystals
